The values that follow are results of earlier work, collected in PMC3215888 (Cancer Chemotherapy and Pharmacology, 2011).

The structures appear in SMILES notation.

For the series, the system named is Aurora kinase A mutation (T217D). The conditions noted are these: cited from earlier work.

Turning to `O=C(O)c1ccc(Nc2ncc3c(n2)-c2ccc(Cl)cc2C(c2c(F)cccc2F)=NC3)cc1` [MLN8054, reference compound], the “inhibition of Aurora kinase A T217D mutant” value is “impervious”.
